What was measured:
[1] = target: T1, thymidylate synthase (Mus musculus, UniProt P07607); assay: Test (a): in vitro inhibition of thymidylate synthase; type: biochemical; settings: partially purified thymidylate synthase from L1210 mouse leukaemia cells
T1 construct: Thymidylate synthase was obtained in partially purified form from L1210 mouse leukaemia cells; endogenous in cells; host or cells: L1210 mouse leukaemia cells (enzyme partially purified)
Text: (a) An in vitro assay which determines the ability of a test compound to inhibit the enzyme thymidylate synthase. Thymidylate synthase was obtained in partially purified form from L1210 mouse leukaemia cells and utilised using the procedures described by Jackman et al. (Cancer Res., 1986, 46, 2810 and Sikora et al., Biochem. Pharmacol. 1988, 37 4047);

[2] = tested on: human breast cancer cell line MCF-7; assay: Test (c): inhibition of growth of human breast cancer cell line MCF-7 in cell culture; type: cell-based; settings: MCF7, MCF-7 cell growth
Text: (c) An assay which determines the ability of a test compound to inhibit the growth of the human breast cancer cell line MCF-7 in cell culture. The test is similar to that described by Lippman et al. (Cancer Res., 1976, 36, 4595) and […]

[3] = tested on: leukaemia cell line L1210; assay: Test (b): inhibition of growth of leukaemia cell line L1210 in cell culture; type: cell-based; settings: Mus musculus
Text: (b) An assay which determines the ability of a test compound to inhibit the growth of the leukaemia cell line L1210 in cell culture. The test is similar to that described in UK Patent Specification No. 2065653B and has been described by Jones et al., J. Med. Chem., 1985, 28, 1468;

[4] = tested on: lymphoma cell line L5178Y TK-/-; assay: Test (d): cytotoxicity to lymphoma cell line L5178Y TK-/- in vitro; type: cell-based; settings: Mus musculus
Text: (d) An assay which determines the ability of a test compound to be cytotoxic to the lymphoma cell line L5178Y TK-/- in vitro. The lymphoma cell line L5178Y TK-/- is deficient in the enzyme thymidine kinase with phosphorylates thymidine and thus operates to generate a pool of thymidylate when de novo synthesis of thymidylate is prevented by the presence of an effective amount of an inhibitor of thymidylate synthase. The L5178Y TK-/- cell line is thereby more sensitive to the presence of an inhibitor of thymidylate synthase. [L5178Y TK-/- was obtained by mutation of the parent L5178Y cell line which is described by, for example, Fischer et al., Methods in Medical Research, 1964, 10, 247].

[5] = tested on: human breast, ovarian and liver cancer; settings: clinical, in words; cited from earlier work
[6] = Cancer Treatment Reports, 1986, 70, 1335; in words; cited from earlier work

T1 sequence (P07607 whole entry): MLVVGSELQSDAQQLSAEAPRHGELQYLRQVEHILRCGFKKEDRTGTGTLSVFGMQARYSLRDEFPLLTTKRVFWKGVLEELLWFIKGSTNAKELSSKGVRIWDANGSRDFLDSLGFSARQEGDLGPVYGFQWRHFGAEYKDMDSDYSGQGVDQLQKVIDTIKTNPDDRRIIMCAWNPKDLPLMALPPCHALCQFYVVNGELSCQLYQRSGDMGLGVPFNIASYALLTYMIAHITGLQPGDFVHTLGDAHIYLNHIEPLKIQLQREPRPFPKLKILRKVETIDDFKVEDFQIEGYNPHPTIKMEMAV

Row | Compound | IC50 [1] [nM] | IC50 [2] [nM] | IC50 [3] [nM] | IC50 [4] [nM] | activity against human breast, ovarian and liver cancer [5] | toxicity in humans [6]
1 | C#CCN(c1ccc(C(=O)N[C@@H](CCC(=O)O)C(=O)O)cc1)C1CCc2cc3nc(C)[nH]c(=O)c3cc21 (mixture of isomers) [Example 1, N-{p-[N-((6RS)-2-methyl-4-oxo-3,4,7,8-tetrahydro-6H-cyclopenta[g]quinazolin-6-yl)-N-(prop-2-ynyl)amino]benzoyl}-L-glutamic acid] | 7 | 20 | 280 | 720 | – | –
2 | C#CCN(Cc1ccc2nc(N)[nH]c(=O)c2c1)c1ccc(C(=O)N[C@@H](CCC(=O)O)C(=O)O)cc1 [CB3717] | – | – | – | – | promising activity against human breast, ovarian and liver cancer | shows symptoms of toxicity in humans, particularly in relation to the liver and kidney
